Measured values: patent US8586051B2, “Glycolipids and analogues thereof as antigens for NKT cells” (The Rockefeller University, priority 2004, dated 2013)

Assays:
[1] = system: Vα24i human NKT cell line; experiment: In vitro cytokine secretion assay using human NKT cell lines with CD14+ dendritic cells; type: cell-based
Procedure: (§1) Human NKT cell lines, expressing the Vα24i T cell receptor as well as CD161, were generated as follows: Anti-CD161 monoclonal antibodies, and anti-CD14 monoclonal antibodies, each coupled to magnetic beads (Miltenyi biotec, Auburn, Calif.), were used sequentially to isolate CD161^+ cells and CD14^+ cells from leukopaks. Immature dendritic cells were generated from the CD14^+ cells after a two-day incubation in the presence of 300 U/ml GM-CSF (R&D systems, Minneapolis, Minn.) and 100 U/ml IL-4 (R&D systems, Minneapolis, Minn.). Following irradiation with 2000 rads, the immature dendritic cells were co-cultured with syngeneic CD161′ cells in the presence of 100 ng/ml of alpha-galactosylceramide and 10 IU/ml of IL-2 (Invitrogen, Carlsbad Calif.) for 10 to 14 days. After stimulating the CD161^+ cells a second time with alpha-galactosylceramide-pulsed, irradiated immature dendritic cells, NKT cell lines were shown by flow cytometry to express both CD161^+ and V 24i TCR (99% purity).
IFN-γ and IL-4 secretion by the Vα 24i human NKT cell line was determined by ELISA (BD Pharmingen, San Diego, Calif.) after culture for 16 hours. […]
as §1, with “of 100-0.1” for “of 100”
IFN-γ secretion by the Vα 24i human NKT cell line was determined by ELISA (BD Pharmingen, San Diego, Calif.) after culture for 16 hours. […]

[2] = system: CD1d reactive T cell hybridomas with an invariant Vα14i T cell antigen receptor α chain; experiment: 1.2 Hybridoma assay (IL-2 release by ELISA); type: cell-based, Mouse; conditions: for IL-2 secretion: CD1d coated plates, FIG. 8b; for IL-2 release / IL-2 production: various concentrations, FIG. 13
Procedure: As a measure of T cell activation, IL-2 release into the tissue culture medium was measured after 16 hours culture by an ELISA assay.
As a measure of T cell activation, IL-2 and IFN-γ release into the tissue culture medium was measured after 16 hours culture by an ELISA assay.

CCCCCCCCCCCCCCC[C@@H](O)[C@H](COC1OC(C(=O)O)C(O)C(O)C1O)NC(=O)CCCCCCCCCCCCC (some centres unmarked) [Compound 5]
reactivity of human Vα24i NKT cells [1]: conserved

CCCCCCCCCCCCCCC[C@@H](O)[C@H](COC1OC(C(=O)O)C(O)C(O)C1O)NC(=O)[C@@H](O)CCCCCCCCCCCC (some centres unmarked) [Compound 6]
reactivity of human Vα24i NKT cells [1]: conserved

CCCCCCCCCCCCCCC[C@@H](O)[C@H](COC1OC(CO)C(O)C(O)C1O)NC(=O)CCCCCCCCCCCCC (some centres unmarked) [Compound 7]
IL-2 secretion [2]: greater IL-2 secretion when compared to the galacturonic acid derivatives

CCCCCCCCCCCCCCC[C@@H](O)[C@H](COC1OC(CO)C(O)C(O)C1O)NC(=O)[C@@H](O)CCCCCCCCCCCC (some centres unmarked) [Compound 8]
IL-2 secretion [2]: less able to activate IL-2 secretion when compared with 5

CCCCCCCCCCCCCC[C@@H](O)[C@@H](O)[C@H](COC1OC(CO)C(O)C(O)C1O)NC(=O)CCCCCc1ccccc1 (some centres unmarked) [Compound 83]
IL-2 release / IL-2 production ([2]; CD1d transfected A20 cells): significant increase of IL-2 production

CCCCCCCCCCCCCC[C@@H](O)[C@@H](O)[C@H](COC1OC(CO)C(O)C(O)C1O)NC(=O)CCCCCCCc1ccccc1 (some centres unmarked) [Compound 84]
interferon-γ secretion ([1]; 100-0.1 ng/mL, FIGS. 17 and 18): consistently stimulating greater IFN-γ secretion
IL-2 release / IL-2 production ([2]; CD1d transfected A20 cells): significant increase of IL-2 production

CCCCCCCCCCCCCCCCCCCCCCCCCC(=O)N[C@@H](CO[C@H]1O[C@H](CO)[C@H](O)[C@H](O)[C@H]1O)[C@H](O)[C@H](O)CCCCCCCCCCCCCC [α-GalCer, α-Galactosylceramide, reference compound]
IL-4 secretion ([1]; 10 μg/ml glycolipid (1-10 μg/ml for 3-O-sulfo-α-galactosylceramide), 10 IU/ml IL-2): greater IFN-γ and IL-4 secretion
IFN-γ secretion ([1]; 10 μg/ml glycolipid (1-10 μg/ml for 3-O-sulfo-α-galactosylceramide), 10 IU/ml IL-2, FIG. 9a): greater IFN-γ and IL-4 secretion
IL-2 release from the hybridomas ([2]; 1 μg/ml, CD1d transfected A20 cells, FIG. 12): greatest amount of IL-2 release
IL-2 secretion [2]: greater IL-2 secretion when compared to the galacturonic acid derivatives
